Test results published in article PMC12626222, “Benzoic and salicylic acids inhibit β-substituted alanine synthase 4;1 in common bean” (Plant Physiology, 2025).
Each block holds one compound with its values, some of them ahead of it.

Assays:
[1] = biological target: T1, PvBSAS4;1 (beta-substituted alanine synthase 4;1, cytosolic cysteine synthase) (Phaseolus vulgaris, UniProt V7BIJ9); assay: acid-ninhydrin colorimetric assay of cysteine formation, […] nm; format: biochemical
T1 construct: gene PHAVU_007G185200g
T1 sequence (V7BIJ9 entry or part of it): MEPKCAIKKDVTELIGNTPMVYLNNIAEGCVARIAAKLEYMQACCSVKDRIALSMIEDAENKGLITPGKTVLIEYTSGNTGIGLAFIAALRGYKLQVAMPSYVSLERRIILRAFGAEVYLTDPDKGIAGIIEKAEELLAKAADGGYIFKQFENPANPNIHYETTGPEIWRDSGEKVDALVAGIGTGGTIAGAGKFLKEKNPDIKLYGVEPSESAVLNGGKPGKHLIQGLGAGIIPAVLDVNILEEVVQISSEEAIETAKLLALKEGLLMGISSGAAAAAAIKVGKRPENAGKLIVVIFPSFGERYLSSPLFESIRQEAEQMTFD

[2] = biological target: T1, PvBSAS4;1 (beta-substituted alanine synthase 4;1, cytosolic cysteine synthase); assay: X-ray crystal structure, […] Å; format: binding
[3] = biological target: T1, PvBSAS4;1 (beta-substituted alanine synthase 4;1, cytosolic cysteine synthase); assay: acid-ninhydrin colorimetric assay, Lineweaver-Burk plot; format: biochemical; conditions: 2 to 8 mM O-acetylserine, 1.5 mM sodium sulfide, 100 mM MOPSO pH 7.0, 25 °C; apparent values plotted against benzoic acid concentration

- IC50 [1]: ~600 µM
SMILES: O=C(O)c1ccccc1 [BEZ, benzoic acid]
- X-ray crystal structure, 1.60 Å ([2]; co-purified from E. coli, active site, near PLP (internal aldimine), carboxylate bound by Thr76, Ser77, Asn79, Thr80, Gln150): contains the PLP prosthetic group and a molecule of benzoic acid (Fig. 3A)

SMILES: CC(=O)OC[C@H](N)C(=O)O [OAS, O-acetylserine]
- Ks app [3]: the replot of Ks app versus the concentration of inhibitor

SMILES: Cc1ncc(COP(=O)(O)O)c(C=O)c1O [PLP, pyridoxal 5′-phosphate]
- X-ray crystal structure, 1.60 Å ([2]; covalent internal aldimine with Lys48, co-purified): PLP is stabilized by a covalent bond to Lys48, creating an internal aldimine

- IC50 [1]: 600 µM
SMILES: O=C(O)c1ccccc1O [salicylic acid]
